Source: US8211856B2, “Use of somatostatin-14 as a therapeutic agent” (mondoBIOTECH Laboratories AG, priority 2007, dated 2012)
No end group written: not given here.

Experiments:
[1] = system: HIV-1IIIB; experiment: HIV-1 antiviral assay in CEM-SS cells; details: HIV-1 assay
[2] = system: HCMV strain AD169; experiment: HCMV plaque formation assay in MRC-5 cells; assay type: cell-based; details: for inhibition of HCMV plaque formation as compared to the virus control experiment: 10 micrograms per ml, 7-10 days
[3] = system: Human A549 cells; experiment: Apoptosis induction assay (Annexin-5); assay type: cell-based; details: 10 micrograms per ml; 24 hours
[4] = system: Primary Human endothelial cells (HUVEC); experiment: Endothelial cell migration assay; assay type: cell-based; details: 10 micrograms per ml; 22 hours
[5] = system: Human A549 cells; experiment: Apoptosis prevention assay (C2 ceramide, Annexin-5); assay type: cell-based; details: 10 micrograms per ml; 30 min pretreatment, then C2 ceramide
Method: Human A549 cells (carcinomic human alveolar basal epithelial cells) were utilized in the experiments employing the Annexin-5 apoptosis assay. […] A549 cells were pretreated for 30 min with test peptides—10 micrograms per ml—followed by the exposure to C2 ceramide.

[6] = system: hepatitis B virus (HBV) ayw strain; experiment: HBV experimental assay system (HepG2-2.2.15, TaqMan PCR of secreted HBV DNA); assay type: cell-based; details: 10 micrograms per ml; six days; HBV DNA in supernatant
[7] = system: murine spleen cells; experiment: Th1/Th2 cytokine profiling assay (Ovalbumin-restimulated spleen cells); assay type: cell-based, Balb/c mice; details: 10 micrograms per ml; Ovalbumin restimulation, 72 hours
From the text: The Balb/c mice (originated in 1923, it is a popular strain and is used in many different research disciplines. Also classified as an inbred from the production of 20 or more successive brother-sister matings, the Balb/c mouse is albino and small in size) were immunized on Days 1, 15, and 29 with Ovalbumin (Ovalbumin is the main protein found in egg white, commonly used to stimulate an immunological reaction in test animals) in PBS (5 micrograms/injection). On day 50, spleens of the mice were harvested (3 weeks after last boost with Ovalbumin). […] Thereafter, additional Ovalbumin was added to the cells at 10 micrograms/ml for in vitro restimulation of the cells. 72 hours later, cell supernatants were harvested and assayed using the Becton Dickinson Mouse Th1/Th2 Cytokine CBA Kit.

[8] = system: HUVEC; experiment: Endothelial tube formation assay; assay type: cell-based, human; details: 10 micrograms per ml; 20 hours
From the text: Positive control was vehicle only.

| Compound | antiviral activity of positive control compounds [1] | induction of apoptosis on human lung cells [3] [%] | inhibition of HCMV plaque formation as compared to the virus control experiment [2] [%] | inhibition of HBV replication as compared to the virus control infection [6] [%] | production of IL-2, induced by [7] [%] | production of IL-4, induced by [7] | production of IL-5, decreased by [7] | production of TNF-alpha, induced by [7] | tube formation of human endothelial cells, inhibited by [8] [%] | other results |
| --- | --- | --- | --- | --- | --- | --- | --- | --- | --- | --- |
| Cc1cn([C@H]2C[C@H](N=[N+]=[N-])[C@@H](CO)O2)c(=O)[nH]c1=O [AZT] | expected levels of antiviral activity | – | – | – | – | – | – | – | – | – |
| Nc1nc(O)c2ncn(COC(CO)CO)c2n1 [Ganciclovir, reference compound] | – | – | – | – | – | – | – | – | – | antiviral activity of positive control compound ([2]; positive control, HCMV assay): expected levels of antiviral activity |
| CC(C)(C)NC(=O)[C@@H]1CN(Cc2cccnc2)CCN1C[C@@H](O)C[C@@H](Cc1ccccc1)C(=O)N[C@H]1c2ccccc2C[C@H]1O [indinavir] | expected levels of antiviral activity | – | – | – | – | – | – | – | – | – |
| Ala-Gly-Cys-Lys-Asn-Phe-Phe-Trp-Lys-Thr-Phe-Thr-Ser-Cys-OH (AGCKNFFWKTFTSC-OH; ends and bridges not checked) [Peptide 1] | – | 9.4 | 1.8 | 14.1 | 102.7 | did not significantly change | did not significantly change | 27.5% | 9 | migration of human endothelial cells, inhibited by [4]: 3%; induction of apoptosis on human lung cells (ceramide-induced apoptosis) [5]: 27%; production of IFN-gamma, induced by [7]: 65.1% |
| Gly-Pro-Glu-OH [Peptide 2] | – | 1.4 | 2.9 | 30.7 | 24.0 | 52.7% | 37.2% | did not significantly change | 20 | migration of human endothelial cells, induced by [4]: 11%; production of IFN-gamma, decreased by [7]: 42.5% |
